# US20230314443A1, “METHODS OF IDENTIFYING INTERACTIONS OF A COMPOUND AND A CONDENSATE, OR A COMPONENT THEREOF, AND USES THEREOF” (Dewpoint Therapeutics, Inc., priority 2020, published 2023)
# How the values were obtained:
# FUS-RRM = molecular target: T1, FUS-RRM (Homo sapiens, UniProt P35637); test: NMR 1H/15N-HSQC titration of FUS-RRM with Rho800 (chemical shift perturbations); format: binding; details: CSPs by 1H/15N-HSQC 2D-NMR; FIG. 5A, 5B
# T1 construct: made in house; host or cells: E. coli
# T1 sequence (P35637 285-371 limits assumed): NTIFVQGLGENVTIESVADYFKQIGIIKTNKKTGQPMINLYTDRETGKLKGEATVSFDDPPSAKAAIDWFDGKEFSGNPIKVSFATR
# Protocol: For binding study, recombinant ^15N-isotope and ^15N/^13C-labeled FUS-RRM proteins were expressed in E. coli and purified using published methods. NMR peak assignments were transferred from publicly available data repositories and confirmed using standard 3D NMR methods. […] protein was titrated with Rho800, ^1H/^15N-HSQC (heteronuclear single quantum coherence) were recorded, and chemical shift perturbations (CSPs) were calculated from the […] Rho800 spectra.
# FUS-mEGFP/RNA droplets = molecular target: T2, FUS-mEGFP/RNA droplets (Homo sapiens, UniProt P35637); test: Rho800 titration in FUS-mEGFP/RNA droplets (confocal imaging of Rho800 and FUS-mEGFP intensity inside droplets); details: increasing Rho800 concentrations, FIG. 4
# T2 sequence (P35637 1-526): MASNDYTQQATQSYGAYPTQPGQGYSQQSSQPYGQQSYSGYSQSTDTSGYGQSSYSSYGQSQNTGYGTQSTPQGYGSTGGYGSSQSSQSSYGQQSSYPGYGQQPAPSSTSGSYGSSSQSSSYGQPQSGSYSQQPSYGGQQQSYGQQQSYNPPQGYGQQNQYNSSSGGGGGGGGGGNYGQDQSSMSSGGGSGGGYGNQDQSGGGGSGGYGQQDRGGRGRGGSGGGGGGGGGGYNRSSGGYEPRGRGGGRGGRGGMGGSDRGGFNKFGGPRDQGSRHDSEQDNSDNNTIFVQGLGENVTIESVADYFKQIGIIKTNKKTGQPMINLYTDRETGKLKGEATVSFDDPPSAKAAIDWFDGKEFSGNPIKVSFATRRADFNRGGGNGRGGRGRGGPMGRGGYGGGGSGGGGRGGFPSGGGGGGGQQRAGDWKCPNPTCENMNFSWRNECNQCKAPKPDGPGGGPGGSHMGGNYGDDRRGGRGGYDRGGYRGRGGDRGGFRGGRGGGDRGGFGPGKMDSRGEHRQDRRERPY
# Protocol: For partitioning study, droplets were prepared in a low-attachment 384-well plate by mixing recombinant FUS-mEGFP protein with synthetic PrD RNA, in the presence of the indicated concentration of Rho800, at a final concentration of […] FUS-mEGFP and 250 nM PrD RNA, using an automated liquid handler. The droplets were incubated at room temperature, in the dark for 4 hours and imaged using a high content confocal fluorescence microscope. Values indicated on the y-axis of FIG. 4 (n=3) were obtained by quantitative image analysis and represent the mean per well intensity of FUS-mEGFP and Rho800 inside segmented droplets.
# FUS-SNAP protein = molecular target: T3, FUS-SNAP protein (Homo sapiens, UniProt P35637); test: Binding affinity of RhoB to FUS-SNAP protein in the light phase (Dianthus MST); details: FIG. 3B
# T3 sequence (P35637 1-526): T2 sequence (P35637 1-526)
# Protocol: The binding affinity (Kd) of RhoB to FUS-SNAP protein in the light phase was measured using Dianthus MST technology.
# FUS-SNAP condensates = molecular target: T4, FUS-SNAP condensates (Homo sapiens, UniProt P35637); test: Partitioning of RhoB into FUS-SNAP condensates formed in vitro (fluorescence and mass spectrometry); details: RhoB 5 μM and 1.25 μM; fluorescence spectroscopy (RhoB-FL) and mass spectroscopy (RhoB-MS); fraction of RhoB in supernatant; FIG. 3A
# T4 sequence (P35637 1-526): T2 sequence (P35637 1-526)
# Protocol: SNAP-tagged FUS protein (“FUS-SNAP”) and RhoB were mixed and subjected to a phase separation condition. The final concentration of RhoB in the reaction was 5 μM and 1.25 μM. For control experiment, no RhoB was added. The partition characteristic of RhoB to FUS-SNAP condensate was then measured by both a fluorescence spectroscopy and a mass spectroscopy-based technique described herein.
# Images of the condensate droplets were acquired with a confocal microscope for appropriate setting for RhoB. The background signal of FUS-SNAP droplets in the absence of RhoB was also recorded. Fluorescence intensity was measured inside a FUS-SNAP condensate and in a region next to (outside) the FUS-SNAP condensate, and corrected for background signal (no RhoB controls), to calculate the fraction of RhoB in extra-condensate solution (i.e., supernatant).
# A mass spectrometry-based method was used to measure the partition characteristics of RhoB and compared to measurements obtained using the fluorescence-based assay above. […] The amount of RhoB in the supernatant and a reference reaction were measured using mass spectrometry. The partition characteristic was then calculated based on the fraction of RhoB in extra-condensate solution (i.e., supernatant).
# FUS-EGFP condensate = molecular target: T5, FUS-EGFP condensate (Homo sapiens, UniProt P35637); test: Modulation of FUS-EGFP partitioning into the condensate by RhoB (confocal microscopy); format: biochemical; details: 1.5 μM RhoB vs no RhoB; FIG. 3C
# T5 sequence (P35637 1-526): T2 sequence (P35637 1-526)
# Protocol: EGFP-tagged FUS protein (“FUS-EGFP”) and RhoB were mixed and subjected to phase separation condition. The final concentration of RhoB in the reaction was 1.5 μM. For control experiment, no RhoB was added. Images were acquired with a confocal microscope, and EGFP signal inside (I-in) and outside (I-out) of the FUS-EGFP condensate was measured as described above.
binding of Rho800 to FUS-RRM domain (FUS-RRM),Kd (FUS-SNAP protein) [µM],partitioning of RhoB into FUS-SNAP condensates (FUS-SNAP condensates),partitioning of EGFP-labeled FUS into the condensate in the presence of RhoB (FUS-EGFP condensate),SMILES,partitioning of Rho800 into the condensate droplets (FUS-mEGFP/RNA droplets; 4 hours at room temperature),partitioning of FUS-mEGFP in the condensate droplets in the presence of Rho800 (FUS-mEGFP/RNA droplets)
binds directly to the FUS-RRM domain,,,,N#CC1=c2cc3c4c(c2Oc2c1cc1c5c2CCCN5CCC1)CCC[N+]=4CCC3 [Rho800],increased partitioning of the compound into the condensate droplets,FUS-mEGFP de-partitioning from the condensate droplets
,17.1,partitions into FUS-SNAP condensates,partitioned less into the condensate,"CCN(CC)c1ccc2c(-c3ccccc3C(=O)O)c3ccc(=[N+](CC)CC)cc-3oc2c1 [RhoB, Rhodamine B]",,
